Source: US20260262643A1, “HERBICIDAL BENZOXAZINES” (FMC CORPORATION, priority 2022, published 2026)

Legend:
green foxtail [1] = assay: Test C preemergence; assay type: in vivo, Setaria viridis; details: 0 to 100 scale (0 no effect, 100 complete control)
How it was run: (§1)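 Seeds sown in loam soil–sand blend received a directed preemergence soil spray of test chemical in non-phytotoxic solvent with surfactant; postemergence plants (2–10 cm, one- to two-leaf stage) were sprayed with the same formulation. Greenhouse-held 10 days, then visually rated for injury versus untreated controls, 0 (no effect) to 100 (complete control).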

barnyardgrass [2] = assay: Test C preemergence; assay type: in vivo, Echinochloa crusgalli; details: 0 to 100 scale (0 no effect, 100 complete control)
How it was run: as §1

soybean [3] = assay: Test C preemergence; assay type: in vivo, Glycine max; details: 0 to 100 scale (0 no effect, 100 complete control)
How it was run: as §1

galium = assay: Test C postemergence; assay type: in vivo, Galium aparine; details: 10 days
How it was run: as §1

pigweed, palmer [4] = assay: Test C preemergence; assay type: in vivo, Amaranthus palmeri; details: 0 to 100 scale (0 no effect, 100 complete control)
How it was run: as §1

ryegrass, Italian [5] = assay: Test C preemergence; assay type: in vivo, Lolium multiflorum; details: 0 to 100 scale (0 no effect, 100 complete control)
How it was run: as §1

sedge, umbrella = assay: Test D flooded paddy test; assay type: in vivo, Cyperus difformis; details: 250 g ai/ha, applied to paddy water, visual rating after 13 to 14 days, scale 0 to 100 (0 no effect, 100 complete control)
How it was run: (§2)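 Plants grown to the 2-leaf stage; pots flooded to 3 cm above soil at treatment and held at that depth throughout. Test compounds applied directly to the paddy water. After 13 to 14 days in a greenhouse, response was rated visually versus controls on a 0 (no effect) to 100 (complete control) scale.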

barnyardgrass [6] = assay: Test C postemergence; assay type: in vivo, Echinochloa crusgalli; details: 10 days
How it was run: as §1

barnyardgrass [7] = assay: Test D flooded paddy test; assay type: in vivo, Echinochloa crus-galli; details: 250 g ai/ha, applied to paddy water, visual rating after 13 to 14 days, scale 0 to 100 (0 no effect, 100 complete control)
How it was run: as §2

wheat [8] = assay: Test C postemergence; assay type: in vivo, Triticum aestivum; details: 10 days
How it was run: as §1

corn [9] = assay: Test C preemergence; assay type: in vivo, Zea mays; details: 0 to 100 scale (0 no effect, 100 complete control)
How it was run: as §1

corn [10] = assay: Test C postemergence; assay type: in vivo, Zea mays; details: 10 days
How it was run: as §1

kochia [11] = assay: Test C postemergence; assay type: in vivo, Bassia scoparia; details: 10 days
How it was run: as §1

ragweed [12] = assay: Test C preemergence; assay type: in vivo, Ambrosia artemisiifolia; details: 0 to 100 scale (0 no effect, 100 complete control)
How it was run: as §1

green foxtail [13] = assay: Test C postemergence; assay type: in vivo, Setaria viridis; details: 10 days
How it was run: as §1

blackgrass [14] = assay: Test C preemergence; assay type: in vivo, Alopecurus myosuroides; details: 0 to 100 scale (0 no effect, 100 complete control)
How it was run: as §1

kochia [15] = assay: Test C preemergence; assay type: in vivo, Bassia scoparia; details: 0 to 100 scale (0 no effect, 100 complete control)
How it was run: as §1

ragweed [16] = assay: Test C postemergence; assay type: in vivo, Ambrosia artemisiifolia; details: 10 days
How it was run: as §1

wheat [17] = assay: Test C preemergence; assay type: in vivo, Triticum aestivum; details: 0 to 100 scale (0 no effect, 100 complete control)
How it was run: as §1

horseweed = assay: Test C postemergence; assay type: in vivo, Erigeron canadensis; details: 10 days
How it was run: as §1

soybean [18] = assay: Test C postemergence; assay type: in vivo, Glycine max; details: 10 days
How it was run: as §1

oat, wild [19] = assay: Test C postemergence; assay type: in vivo, Avena fatua; details: 10 days
How it was run: as §1

blackgrass [20] = assay: Test C postemergence; assay type: in vivo, Alopecurus myosuroides; details: 10 days
How it was run: as §1

rice = assay: Test D flooded paddy test; assay type: in vivo, Oryza sativa; details: 250 g ai/ha, applied to paddy water, visual rating after 13 to 14 days, scale 0 to 100 (0 no effect, 100 complete control)
How it was run: as §2

pigweed, palmer [21] = assay: Test C postemergence; assay type: in vivo, Amaranthus palmeri; details: 10 days
How it was run: as §1

ducksalad = assay: Test D flooded paddy test; assay type: in vivo, Heteranthera limosa; details: 250 g ai/ha, applied to paddy water, visual rating after 13 to 14 days, scale 0 to 100 (0 no effect, 100 complete control)
How it was run: as §2

ryegrass, Italian [22] = assay: Test C postemergence; assay type: in vivo, Lolium multiflorum; details: 10 days
How it was run: as §1

oat, wild [23] = assay: Test C preemergence; assay type: in vivo, Avena fatua; details: 0 to 100 scale (0 no effect, 100 complete control)
How it was run: as §1

[24] = Preemergence, 500 g ai/ha, visual rating after 10 days
[25] = Test C, preemergence, 125 g ai/ha
[26] = 125 g ai/ha, postemergence, 0 to 100 scale, 0 no effect, 100 complete control
[27] = Postemergence, 500 g ai/ha, visual 0 to 100 scale (0 no effect, 100 complete control)

CCc1ncn(-c2cc3c(c(C(=O)N4C[C@H](C)Oc5c(Cl)cccc54)c2)OCCO3)n1 [Compound 155]
Plant response rating, Foxtail, Green (green foxtail [1]; [24]): 100
Foxtail, Green plant response rating (green foxtail [1]; [25]): 100
Barnyardgrass plant response rating (barnyardgrass [2]; 125 g ai/ha, preemergence): 90
Plant response rating, Barnyardgrass (barnyardgrass [2]; [24]): 100
Plant response rating, Soybean (soybean [3]; [24]): 100
Soybean plant response rating (soybean [3]; [25]): 70
Plant response rating, Galium (galium; [26]): 100
Plant response rating, Galium (galium; [27]): 100
Plant response rating, Pigweed, Palmer (pigweed, palmer [4]; [24]): 100
Pigweed, Palmer plant response rating (pigweed, palmer [4]; [25]): 100
Plant response rating, Ryegrass, Italian (ryegrass, Italian [5]; [24]): 90
Ryegrass, Italian plant response rating (ryegrass, Italian [5]; [25]): 70
Plant response rating, Sedge, Umbrella (Flood) (sedge, umbrella): 98
Plant response rating, Barnyardgrass (barnyardgrass [6]; [26]): 90
Plant response rating, Barnyardgrass (barnyardgrass [6]; [27]): 90
Plant response rating, Barnyardgrass (Flood) (barnyardgrass [7]): 20
Plant response rating, Wheat (wheat [8]; [26]): 60
Plant response rating, Wheat (wheat [8]; [27]): 80
Plant response rating, Corn (corn [9]; [24]): 50
Corn plant response rating (corn [9]; [25]): 10
Plant response rating, Corn (corn [10]; [26]): 40
Plant response rating, Corn (corn [10]; [27]): 90
Plant response rating, Kochia (kochia [11]; [26]): 80
Plant response rating, Kochia (kochia [11]; [27]): 90
Plant response rating, Ragweed (ragweed [12]; [24]): 100
Ragweed plant response rating (ragweed [12]; [25]): 60
Plant response rating, Foxtail, Green (green foxtail [13]; [26]): 90
Plant response rating, Foxtail, Green (green foxtail [13]; [27]): 90
Plant response rating, Blackgrass (blackgrass [14]; [24]): 90
Blackgrass plant response rating (blackgrass [14]; [25]): 50
Plant response rating, Kochia (kochia [15]; [24]): 90
Kochia plant response rating (kochia [15]; [25]): 80
Plant response rating, Ragweed (ragweed [16]; [26]): 100
Plant response rating, Ragweed (ragweed [16]; [27]): 100
Plant response rating, Wheat (wheat [17]; [24]): 70
Wheat plant response rating (wheat [17]; [25]): 20
Plant response rating, Horseweed (horseweed; [26]): 70
Plant response rating, Horseweed (horseweed; [27]): 70
Plant response rating, Soybean (soybean [18]; [26]): 100
Plant response rating, Soybean (soybean [18]; [27]): 100
Plant response rating, Oat, Wild (oat, wild [19]; [26]): 20
Plant response rating, Oat, Wild (oat, wild [19]; [27]): 50
Plant response rating, Blackgrass (blackgrass [20]; [26]): 90
Plant response rating, Blackgrass (blackgrass [20]; [27]): 100
Plant response rating, Rice (Flood) (rice): 15
Plant response rating, Pigweed, Palmer (pigweed, palmer [21]; [26]): 90
Plant response rating, Pigweed, Palmer (pigweed, palmer [21]; [27]): 100
Plant response rating, Ducksalad (Flood) (ducksalad): 60
Plant response rating, Ryegrass, Italian (ryegrass, Italian [22]; [26]): 70
Plant response rating, Ryegrass, Italian (ryegrass, Italian [22]; [27]): 100
Plant response rating, Oat, Wild (oat, wild [23]; [24]): 50
Oat, Wild plant response rating (oat, wild [23]; [25]): 30
